# Measured values: PubChem BioAssay (NCI)
#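 Cells were grown in 96-well plates and exposed to each compound for 48 hours at five concentrations; endpoints were interpolated linearly between bracketing concentrations, or set to the highest concentration if not reached. At the GI50, growth is halved. The concentration for full growth arrest is given as TGI.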
# Key:
# Test in all cases: inhibition of tumour cell growth, NCI panel, 48 h
# [1] = tested on: A549 NSCLC
# [2] = tested on: HOP-62 NSCLC
# [3] = tested on: KM12 colon
# [4] = tested on: MOLT-4 leukemia
# [5] = tested on: NCI-H460 lung
# [6] = tested on: SF-539 CNS
# [7] = tested on: SW-620 colon
# [8] = tested on: TK-10 renal
# [9] = tested on: HCT-15 colon
# [10] = tested on: SK-OV-3 ovarian
SMILES,GI50 [1] [µM],TGI [1] [µM],GI50 [2] [µM],TGI [2] [µM],GI50 [3] [µM],TGI [3] [µM],GI50 [4] [µM],TGI [4] [µM],GI50 [5] [µM],TGI [5] [µM],GI50 [6] [µM],TGI [6] [µM],GI50 [7] [µM],TGI [7] [µM],GI50 [8] [µM],TGI [8] [µM],GI50 [9] [µM],TGI [9] [µM],GI50 [10] [µM],TGI [10] [µM]
Cc1ccc(-c2c(C#N)c(N)nc(N3CCOCC3)c2C#N)o1,57.1,> 100,26.4,> 100,46.6,> 100,61.9,> 100,43.3,> 100,48.3,> 100,> 100,> 100,35.4,> 100,,,,
O=C(Nc1ccncc1)C(=O)c1cn(S(=O)(=O)c2ccc(Br)cc2)c2ccccc12,15.6,> 100,3.67,38.7,3.88,> 100,,,11.3,> 100,8.03,> 100,4.18,> 100,15.1,> 100,3.81,> 100,19.9,> 100
COc1cc2cc(Oc3ccc(NC(=O)Nc4cccc(C(F)(F)F)c4)cc3)c(C)nc2cc1OCCN1CCCCC1,,,,,1.72,3.3,,,1.83,3.37,1.67,3.05,1.98,3.6,1.83,3.36,,,2.06,3.8
CC12OC(C(=O)C13CC3)C1C(=O)c3ccccc3C(=O)C12 (stereo not given),37.2,> 100,27.8,80,19.9,52,32,> 100,29.9,> 100,24.2,54.6,,,22.8,58.8,,,25.3,74.8
C1=CN2C[n+]3cccc(OCc4ccccc4)c3N=C2C(OCc2ccccc2)=C1,,> 100,,> 100,,,,,,> 100,,26.7,,> 100,,> 100,,> 100,,> 100
O=S(=O)(c1ccc(NC(=S)N/N=C/c2ccccc2O)cc1)N1CCCCC1,,> 31.7,,4.45,,12.9,,2.13,,,,> 40.9,,21,,4.23,,18.4,,37.9
CC(Cl)(/C=C/Cl)C(Cl)/C=C/C(Cl)(CCl)CBr (stereo not given),,47.3,,42.8,,20.8,,3.36,,15.4,,,,8,,20.5,,4.24,,30.9
COC1C=C(Nc2cccc(Cl)c2)C(=O)C1 (stereo not given),,41.2,,> 100,,> 100,,> 100,,> 100,,> 100,,> 100,,> 100,,,,> 100
CCOC(=O)/C(C1=N[C@H](C(=O)OCC)CS1)=C(\C)O,,> 100,,> 100,,> 100,,> 100,,> 100,,,,> 100,,,,> 100,,
CC(C)=CC(=O)CC(=O)C(=O)Nc1ccc(C)c(C)c1,,> 100,,,,> 100,,> 100,,,,> 100,,> 100,,> 100,,> 100,,> 100
O=C1C2=C(c3ccccc31)C(c1ccc(Cl)cc1)N1C(=O)CCSC1=N2 (stereo not given),,> 100,,> 100,,> 100,,> 100,,,,> 100,,> 100,,> 100,,> 100,,> 100
C1CCC([PH+](C2CCCCC2)C2CCCCC2[PH+](C2CCCCC2)C2CCCCC2)CC1.[Au].[CH-]1CCCCC1C1CCCC[N-]1 (stereo not given),,,0.314,1.89,,,0.366,> 100,,,0.337,1.28,,,0.463,1.86,1.5,3.03,0.275,1.14
O=C(Cc1ccccc1)NN1C(=O)C(Cl)C1c1cccc(O)c1 (stereo not given),,59.8,,80.6,,,,31.6,,36.4,,,,16.7,,34.1,,42.7,,80.5
COc1cc(C2C(Cl)C(=O)N2n2cnc3ccccc3c2=O)cc(OC)c1OC (stereo not given),,> 100,,> 100,,> 100,,> 100,,> 100,,,,> 100,,> 100,,> 100,,> 100
CCOC(=O)Cc1c(Cc2[nH]c(C(=O)OCc3ccccc3)c(CC(=O)OCC)c2CC(=O)OCC)[nH]c(C(=O)OCc2ccccc2)c1CC(=O)OCC,,> 100,,> 100,,,,> 100,,,,> 100,,> 100,,,,> 100,,> 100
Cc1cc(Br)cc(C)c1NC(=O)C(=O)CC(=O)c1sc(-n2nc(-c3ccccc3)cc2-c2ccccc2)nc1C,,> 100,,> 100,,> 100,,> 100,,> 100,,,,> 100,,> 100,,> 100,,> 100
O=C1C2CC(Cl)C(SSC3CC4C(=O)N(SC(Cl)(Cl)C(Cl)Cl)C(=O)C4CC3Cl)CC2C(=O)N1SC(Cl)(Cl)C(Cl)Cl (stereo not given),,28.3,,8.64,,> 51,,1.35,,13.4,,6.89,,5.09,,7.07,,,,8.53
NC(N)=NC(CC(=O)O)c1ccccc1 (stereo not given),,> 100,,> 100,,> 100,,,,> 100,,> 100,,> 100,,> 100,,> 100,,> 100
Cn1ncc2cc3c(Nc4ccc(Cl)cc4)cccc3nc21,,85.3,,53,,35.6,,36.3,,32,,,,48.8,,> 100,,37.5,,> 100
C/C(=N\NC(=S)Nc1ccc(C(=O)O)cc1)c1ccccn1,,> 100,,> 100,,68.9,,> 100,,50.2,,40.3,,39.1,,> 100,,> 100,,
CC(Cc1ccc(Cl)cc1Cl)NO (stereo not given),,> 100,,> 100,,> 100,,> 100,,,,,,> 100,,> 100,,> 100,,> 100
